Measurements: patent US12521356B2, “Compositions and methods for treating pain, inflammation, infection, malaria, and sepsis” (Duke University, priority 2018, dated 2026)
pEC50: −log10 of the molar value.

Key:
[1] = tested on: peritoneal macrophages (pMΦ); test: Phagocytosis assay with fluorescence-labeled zymosan particles in peritoneal macrophages; format: cell-based, mouse; settings: for MΦ phagocytosis: pMΦ
Protocol: (§1) Peritoneal macrophage culture. Peritoneal macrophages were collected by peritoneal lavage with 10 ml warm PBS containing of 1 mM EDTA. Cells were incubated in DMEM supplemented with 10% FBS at 37° C. for 2 h in petri dish and washed with PBS to eliminate non-adherent cells. The adherent cells were used as peritoneal macrophages. Peritoneal macrophages were used after 3 days of culture.
Phagocytosis assay. The phagocytosis assay was modified from a previously described protocol (Sommer C, and Kress M. NeurosciLett. 2004, 361, 184-187). pHrodo® Red Zymosan Bioparticles (diameter, 3 μm, Thermo scientific, Catalog: P35364) were rinsed and reconstituted in RPMI medium. Particles were centrifuged (1 min at 100 g) onto adherent peritoneal macrophages at a ratio of 10:1 to synchronize binding and internalization. After 30 min incubation at 37° C., non-adherent beads were removed with cold PBS and cells were fixed with 2% formalin. Four optic fields were photographed with epifluorescence microscopy. Quantification of zymosan particles ingested by MΦ was conducted on at least 200 macrophages/condition/well, and triplicates were included for statistical analysis.
We investigated whether iCa^2+ increases would trigger phagocytosis of pathogens such as zymosan by macrophages. Zymosan is a well-studied pathogen and activates TLR2 to trigger inflammation and inflammatory pain in rodents after intraplantar injection. We tested phagocytosis in pMΦ using fluorescence-labeled zymosan particles.

[2] = biological target: T1, GPR37 (Mus musculus, UniProt Q9QY42); test: Ca2+ imaging (Fluo-4AM) in peritoneal macrophages (pMΦ) from WT and Gpr37−/− mice; format: cell-based; settings: for iCa2+ levels: 100 nM
T1 sequence (Q9QY42 27-600): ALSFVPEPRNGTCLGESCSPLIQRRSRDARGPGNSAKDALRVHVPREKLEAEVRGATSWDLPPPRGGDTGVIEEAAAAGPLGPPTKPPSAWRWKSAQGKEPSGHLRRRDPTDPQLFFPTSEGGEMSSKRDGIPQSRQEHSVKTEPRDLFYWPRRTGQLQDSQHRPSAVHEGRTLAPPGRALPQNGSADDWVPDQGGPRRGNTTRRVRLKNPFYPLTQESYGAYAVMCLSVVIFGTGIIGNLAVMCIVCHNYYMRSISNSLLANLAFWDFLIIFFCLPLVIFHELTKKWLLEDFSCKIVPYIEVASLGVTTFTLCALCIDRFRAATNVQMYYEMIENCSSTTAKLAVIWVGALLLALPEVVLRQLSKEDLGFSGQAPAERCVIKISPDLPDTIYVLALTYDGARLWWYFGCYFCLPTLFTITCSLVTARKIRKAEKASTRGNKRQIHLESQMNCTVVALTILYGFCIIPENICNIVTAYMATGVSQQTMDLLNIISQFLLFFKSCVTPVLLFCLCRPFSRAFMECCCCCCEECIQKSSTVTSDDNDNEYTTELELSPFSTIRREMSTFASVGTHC
Protocol: as §1
Calcium imaging. HEK 293 cells, with or without transfection of Gpr37, GPR32, ChemR23 or ALX1 cDNA, were loaded with 5 μM Fura-2AM (Invitrogen) for 1 hour and then were resuspended in normal external buffer (140 NaCl, 5 KCl, 2 CaCl2, 2 MgCl2, 10 HEPES, in mM, titrated to pH 7.4 with NaOH) or external Ca^2+-free buffer (140 NaCl, 2 MgCl2, 5 EGTA, 10 HEPES, in mM, titrated to pH 7.4 with NaOH). Peritoneal macrophages, collected from WT and Gpr37 KO mice, were loaded with 5 μM […] (Invitrogen) for 1 hour and then were resuspended in normal external buffer. Images of the HEK 293 cells and macrophages with the excitation wavelength of 340 nm and 380 nm were captured with a cooled Digital CMOS camera (ORCA-Flash 4.0, Hamamatsu Photonics K.K, Japan). The ratio of fluorescence intensity of the two wavelengths in each experiment was analyzed using MetaFluor (Molecular Devices). The Shutter speed and wavelength was controlled by Lambda DG-4 system (Sutter instrument Co., Novato, CA). Values from each of the experiments were normalized to the baseline ratio of 340/380 nm.
Next, we conducted GPR37-mediated Ca^2+ imaging in native pMΦ from WT and Gpr37^−/− mice using Fluo-4AM as a Ca^2+ indicator, since this dye works better than Fura-2AM for pMΦ. […] As compared to iCa^2+ increase in GPR37-expressing HEK293 cells, NPD1 trigger a slow-onset but more persistent Ca^2+ response in pMΦ (FIG. 2B and FIG. 2G). A relatively rapid calcium response in HEK293 cells may result from over-expression of GPR37. A sustained iCa^2+ increase in pMΦ may result from the expression of transient receptor potential (TRP) ion channels in these immune cells. It is noteworthy that macrophages express TRPV2 or TRPM2, which are involved in phagocytosis during bacterial infection. […] NPD1-triggered iCa^2+ increase in pMΦ is also Gi-dependent, since PTX blocked this increase (FIG. 2H). For comparison, ATP-evoked iCa^2+ increase was not altered in GPR37-deficient pMΦ (FIG. 2H).

SMILES | MΦ phagocytosis [1] | iCa2+ levels ([2]; pMΦ) | NPD1-evoked increases in phagocytic activity ([1]; Gpr37-deficient MΦ) | percentage of pMΦ showing the phagocytosis of zymosan particles ([1]; wild-type pMΦ) | phagocytic activity (zymosan particles in pMΦ) ([1]; wild-type pMΦ, 30 nM for 30 min) | iCa2+ increase ([2]; 30 nM, WT pMΦ) | pEC50 ([2]; pMΦ, dose response, read-out: EC50 of iCa2+ increase)
CC[C@@H](O)/C=C/C=C\C[C@@H](O)/C=C/C=C/C=C\[C@@H](O)CCCC(=O)O [RvE1] | induced | did not alter iCa^2+ levels | – | – | – | – | –
CC/C=C\C[C@H](O)\C=C/C=C/C=C/[C@H](O)C/C=C\C/C=C\CCC(=O)O [NPD1, neuroprotectin D1] | – | – | abolished | increased | dose-dependent increase in phagocytic activity | robust and sustained iCa^2+ increase | 7.71
CC/C=C\C[C@H](O)/C=C/C=C\C=C\C=C\[C@@H](O)[C@@H](O)C/C=C\CCC(=O)O [RvD1] | induced | did not alter iCa^2+ levels | – | – | – | – | –
